Species on record: Rattus norvegicus
Experiment: Open TG-GATES - Regimen: Single
Format: toxicity, organism-based, Sprague-Dawley
Set-up: regimen Single, gender Male, age 6 weeks
Conditions: in vivo, po, route gavage; for WBC / APTT / Bas / Eos / Fbg / Hb / Ht / Lym / MCH / MCHC / MCV / Mono / Neu / PT / Plat / RBC / Ret: tissue Blood; for KIDNEY_L / KIDNEY_R / KIDNEY_TOTAL: tissue Kidney; for LIVER: tissue Liver; for A/G / ALP / ALT / AST / BUN / CRE / Ca / Cl / DBIL / GLC / IP / K / LDH / Na / PL / RALB / TBIL / TC / TG / TP / gamma-GTP: tissue Plasma
[1] = 2 mg/kg, 9 h, dose level Middle
[2] = 2 mg/kg, 24 h, dose level Middle

## COc1ccc2c(c1)c(CC(=O)O)c(C)n2C(=O)c1ccc(Cl)cc1 [INDOMETHACIN]
[1]
  WBC: 114.3 x10_2/uL
  KIDNEY_L: 0.9 g
  KIDNEY_R: 0.9 g
  KIDNEY_TOTAL: 1.8 g
  LIVER: 8.3 g
  A/G: 2.7
  ALP: 944 IU/L
  ALT: 35.2 IU/L
  AST: 65.6 IU/L
  BUN: 14.2 mg/dL
  CRE: 0.5 mg/dL
  Ca: 10.2 mg/dL
  Cl: 106.8 meq/L
  DBIL: 0.01 mg/dL
  GLC: 199.6 mg/dL
  IP: 10.5 mg/dL
  K: 5 meq/L
  LDH: 80.8 IU/L
  Na: 138.2 meq/L
  PL: 125.8 mg/dL
  RALB: 3.9 g/dL
  TBIL: 0.5 mg/dL
  TC: 72.2 mg/dL
  TG: 35.4 mg/dL
  TP: 5.3 g/dL
  gamma-GTP: 1.8 IU/L
[2]
  TERMINAL_BW: 209.2 g
  APTT: 16.1 s
  Bas: 0%
  Eos: 0.8%
  Fbg: 204.6 mg/dL
  Hb: 13.4 g/dL
  Ht: 40.7%
  Lym: 80.6%
  MCH: 21.5 pg
  MCHC: 33%
  MCV: 65 fL
  Mono: 8.8%
  Neu: 10.2%
  PT: 12.1 s
  Plat: 96.4 x10_4/uL
  RBC: 626.8 x10_4/ul
  Ret: 8.6%
  WBC: 112.4 x10_2/uL
  KIDNEY_L: 0.9 g
  KIDNEY_R: 0.9 g
  KIDNEY_TOTAL: 1.9 g
  LIVER: 10.1 g
  A/G: 2.4
  ALP: 1232.8 IU/L
  ALT: 38.2 IU/L
  AST: 70.6 IU/L
  BUN: 16.4 mg/dL
  CRE: 0.5 mg/dL
  Ca: 10.4 mg/dL
  Cl: 106.4 meq/L
  DBIL: 0.004 mg/dL
  GLC: 195.4 mg/dL
  IP: 8.1 mg/dL
  K: 4.9 meq/L
  LDH: 83.6 IU/L
  Na: 138.4 meq/L
  PL: 140.6 mg/dL
  RALB: 3.9 g/dL
  TBIL: 0.3 mg/dL
  TC: 75.4 mg/dL
  TG: 95.2 mg/dL
  TP: 5.6 g/dL
  gamma-GTP: 1.4 IU/L
5 mg/kg, 3 h, dose level High
  TERMINAL_BW: 201.4 g
  APTT: 16.5 s
  Bas: 0%
  Eos: 0.2%
  Fbg: 211 mg/dL
  Hb: 13.6 g/dL
  Ht: 41.1%
  Lym: 78.4%
  MCH: 21.5 pg
  MCHC: 33.3%
  MCV: 64.8 fL
  Mono: 9%
  Neu: 12.4%
  PT: 12.5 s
  Plat: 108.6 x10_4/uL
  RBC: 634.6 x10_4/ul
  Ret: 8.9%
  WBC: 130.2 x10_2/uL
  KIDNEY_L: 0.9 g
  KIDNEY_R: 1 g
  KIDNEY_TOTAL: 1.9 g
  LIVER: 9.2 g
  A/G: 1.5
  ALP: 1085.6 IU/L
  ALT: 42.6 IU/L
  AST: 70.2 IU/L
  BUN: 11 mg/dL
  CRE: 0.4 mg/dL
  Ca: 10.5 mg/dL
  Cl: 105.2 meq/L
  DBIL: 0.034 mg/dL
  GLC: 191 mg/dL
  IP: 9.5 mg/dL
  K: 5 meq/L
  LDH: 172 IU/L
  Na: 137 meq/L
  PL: 126.2 mg/dL
  RALB: 3.6 g/dL
  TBIL: 0.3 mg/dL
  TC: 71.8 mg/dL
  TG: 55 mg/dL
  TP: 6.1 g/dL
  gamma-GTP: 1.2 IU/L
5 mg/kg, 3 h, dose level Low
  TERMINAL_BW: 224.1 g
  APTT: 18.2 s
  Eos: 0.8%
  Fbg: 222.6 mg/dL
  Hb: 13.9 g/dL
  Ht: 38%
  Lym: 79.4%
  MCH: 22.1 pg
  MCHC: 36.6%
  MCV: 60.4 fL
  Mono: 2.8%
  Neu: 15.6%
  PT: 11.7 s
  Plat: 115.7 x10_4/uL
  RBC: 629.4 x10_4/ul
  Ret: 7.6%
  WBC: 76.1 x10_2/uL
  KIDNEY_L: 1 g
  KIDNEY_TOTAL: 2.1 g
  LIVER: 9.6 g
  A/G: 1.6
  ALP: 872.4 IU/L
  ALT: 37.8 IU/L
  AST: 76.4 IU/L
  BUN: 10.8 mg/dL
  Cl: 103 meq/L
  DBIL: 0.068 mg/dL
  GLC: 187.6 mg/dL
  IP: 9.3 mg/dL
  K: 4.2 meq/L
  LDH: 213 IU/L
  Na: 140.8 meq/L
  PL: 145.6 mg/dL
  RALB: 3.3 g/dL
  TBIL: 0.1 mg/dL
  TC: 85.4 mg/dL
